US5100916A, “Carbamic acid ester for treatment of addiction to alcohol” (Bio-Tox Diagnostics Kommanditbolag, priority 1988, dated 1992)

Tests used:
[1] = biological target: T1, aldehyde dehydrogenase (low Km) (Rattus norvegicus, UniProt P11884); experiment: In vitro inhibition of aldehyde dehydrogenase of low Km, rat liver homogenate; type: biochemical; details: 1 h incubation, 2760 μmol/liter, water ref. = 100, double determinations, 4 rats, read-out: Residual activity of aldehyde dehydrogenase (Low Km in % of ref. value)
T1 construct: The aldehyde dehydrogenase activity in the homogenate after incubation for 1 h; from tissue; host or cells: rat liver homogenate
T1 sequence (P11884 20-519): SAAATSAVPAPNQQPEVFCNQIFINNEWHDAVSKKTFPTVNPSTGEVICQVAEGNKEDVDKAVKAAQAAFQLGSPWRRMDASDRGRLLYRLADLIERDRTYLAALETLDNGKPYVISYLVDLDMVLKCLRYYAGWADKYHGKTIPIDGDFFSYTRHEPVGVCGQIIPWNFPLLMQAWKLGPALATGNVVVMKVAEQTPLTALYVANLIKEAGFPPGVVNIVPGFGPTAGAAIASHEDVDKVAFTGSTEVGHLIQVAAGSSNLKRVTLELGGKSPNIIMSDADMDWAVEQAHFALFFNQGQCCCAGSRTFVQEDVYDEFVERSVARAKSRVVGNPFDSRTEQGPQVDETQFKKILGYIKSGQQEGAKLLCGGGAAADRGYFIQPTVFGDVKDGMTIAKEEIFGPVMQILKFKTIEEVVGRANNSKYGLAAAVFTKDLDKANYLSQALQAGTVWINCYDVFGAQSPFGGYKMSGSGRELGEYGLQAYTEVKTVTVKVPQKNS
Procedure: (§1) METHOD FOR INHIBITING ALDEHYDE DEHYDROGENASE
(§2) Fractionation of rat liver homogenates was performed according to Tottmar et al, Biochem. J. 1973:135:577. The aldehyde dehydrogenase activity in the homogenate after incubation for 1 h with different thiocarbamic acid esters (see Table 1) was measured spectrophotometrically in 50 μl aliquots by following the reduction of NAD to NADH at 340 nm at 37° C. in the presence of the substrate acetaldehyde […], as described by Tottmar and Marcher (Acta Pharmacol. et Toxicol. 1976:38:366).
(§3) In vitro inhibition of aldehyde dehydrogenase of low Km
(§4) The values are X±SD of double determinations, on the one hand in homogenates from 4 rats and, on the other hand, in bovine liver (last two values in Table 1).
(§5) The concentration=2760 μmol/liter for all compounds, except the last two compounds for which the concentration was 3.0 mmol/liter.

[2] = test system: aldehyde dehydrogenase (low Km); experiment: In vitro inhibition of aldehyde dehydrogenase, measured on bovine liver; type: biochemical; details: 3.0 mmol/liter, water ref. = 100, double determinations, 60 min
Procedure: as §1, §2, §3
*Measured on bovine liver
as §4, §5

rats = experiment: "Antabuse-alcohol" reaction on rats by tonometry (diastolic blood pressure after ethanol); type: in vivo, rat; details: N = 3, salt water 92.5 ± 5.2
Procedure: Method of assessing the "Antabuse®-alcohol" reaction on rats by tonometry
These measurements were performed on a selected compound. The substance employed is diethyl thiocarbamic acid-S-methyl ester (referred to as DTSM hereinafter).
Male rats having a body weight of 300-400 g were anaesthetised with urethane 1.25 g/kg i.p. On a group of 4 rats, a catheter filled with heparin-salt water was inserted by operative surgery in one carotid artery, and the blood pressure was recorded before and after intraperitoneal injection of ethanol (1 g/kg, 10 ml/kg of 10% v/v ethanol in water). Two other groups of 3 rats each were treated intraperitoneally with DTSM for 1 and 2 hours, respectively, whereupon ethanol (1 g/kg, 10 ml/kg of 10% v/v ethanol in water) was injected intraperitoneally. The blood pressure was measured before the injection of ethanol and for 30 min. after injection, after which time the blood pressure has usually stabilized itself (Hellstrom and Tottmar: Pharmacology Biochemistry and Behaviour 1982:17:1103).

[3] = cited from earlier work
patients = details: person takes disulfiram and then drinks alcohol; cited from earlier work
[4] = cited from earlier work; remark: listed apart in the source
[5] = test system: acetaldehyde dehydrogenase; details: cited from earlier work

SMILES | remaining activity at 2760 µM [1] [%] | other results
CSC(=O)N1CCCC1 | 9 | –
CSC(=O)N1CCCCC1 | 16 | –
CSC(=O)NCCc1ccc(O)cc1 | 10 | –
CSC(=O)NCCc1ccccc1 | 0 | –
CSC(=O)Nc1ccccc1 | 8 | –
CCCN(CCC)C(=O)SC | 11 | –
COC(=O)N1CCCCC1 [1-piperidine carbamic acid-methyl ester] | – | Residual activity of aldehyde dehydrogenase (Low Km in % of ref. value) [2]: 76 % of ref. value
CCN(CC)C(=O)SC [DTSM, diethyl thiocarbamic acid-S-methyl ester] | 73 | Diastolic blood pressure of rats 30 min. after ethanol injection, % of own ref. value (X ± SD) (rats; DTSM 30 mg/kg i.p. 1 hour before ethanol 1 g/kg i.p., p <0.01): 77.1 ± 3.6 % of own ref. value; Diastolic blood pressure of rats 30 min. after ethanol injection, % of own ref. value (X ± SD) (rats; DTSM 30 mg/kg i.p. 2 hours before ethanol 1 g/kg i.p., p <0.05): 57.6 ± 28 % of own ref. value
CCN(CC)C(=O)OC [Diethyl carbamic acid-methyl ester] | – | Residual activity of aldehyde dehydrogenase (Low Km in % of ref. value) [2]: 87 % of ref. value
CCSC(=O)N(CC)CC [X = CH2 CH3, R = CH2 CH3, R1 = CH2 CH3, diethyl thiocarbamic acid-S-ethyl ester] | 8 | –
CSC(=O)N(C)C [X = CH3, R = CH3, R1 = CH3, dimethyl thiocarbamic acid-S-methyl ester] | 16 | –
CCN(CC)C(=S)SSC(=S)N(CC)CC [disulfiram] | – | t 1/2 of metabolism in blood [3]: 4 min; disulfiram/alcohol reaction (patients): nausea, a ruddy complexion, palpitation of the heart, low blood pressure, vomiting, and a pulsating headache; solubility in water [4]: very sparingly soluble in water; blocking of liver enzyme acetaldehyde dehydrogenase [5]: irreversible blocking
